Earlier results in patent US20050260283A1, “Composition for prevention and treatment of colon adenomas” (Medical Futures Inc., priority 2004, published 2005).

Key:
colorectal cancer = conditions: regular aspirin use; epidemiological studies (Krishnan, 1997)
colorectal adenomas = conditions: calcium supplementation; volunteers with a history of colorectal adenomas (Baron, 1999)

CC(=O)Oc1ccccc1C(=O)O [aspirin]
reduction in the incidence of colorectal cancer (colorectal cancer): 40-50%

O=C([O-])[O-].[Ca+2] [calcium carbonate]
risk of recurrent colorectal adenomas (colorectal adenomas): moderate but significant reduction
